Read-outs that look alike come from different tables or passages of the source.
Test system: HCV pseudoparticles, genotype 1a HCV E1 and E2 envelope (H77C isolate)
Assay: HCV pseudoparticle infection assay (luciferase reporter, Huh7 cells)
Format: cell-based
[1] = class symbol, HCV pseudoparticles genotype 1a (H77C), luciferase 2 days after infection, read-out: EC50 (nM) 1a (H77C)
[2] = numeric value, HCV pseudoparticles genotype 1a (H77C), luciferase 2 days after infection, read-out: EC50 (nM) 1a (H77C)
[3] = Hepatitis C virus, Huh-7, 48 h, read-out: EC50 (nM) 1a (H77C), class symbol, HCV pseudoparticles genotype 1a (H77C), luciferase 2 days after infection
[4] = Hepatitis C virus, Huh-7, 48 h, read-out: EC50 (nM) 1a (H77C), numeric value, HCV pseudoparticles genotype 1a (H77C), luciferase 2 days after infection

Row | Compound | EC50 [3] | further results
1 | O=C1NCCNCCNc2nc(nc(OCC(F)(F)F)n2)Nc2ccc1cc2 [Example 0001] | – | EC50 [1]: 1000 to 5000 nM; EC50 [2]: 4200 nM
2 | O=C1NCCCCCCCCNc2nc(nc(OCC(F)(F)F)n2)Nc2ccc1cc2 [Example 0002] | – | EC50 [1]: 0.1 to 100 nM
3 | O=C1NCCCCCCCCCCNc2nc(nc(OCC(F)(F)F)n2)Nc2ccc1cc2 [Example 0003] | – | EC50 [1]: 100 to 1000 nM; EC50 [2]: 101 nM
4 | O=C1NCCCOCCCCOCCCNc2nc(nc(OCC(F)(F)F)n2)Nc2ccc1cc2 [Example 0004] | – | EC50 [1]: 0.1 to 100 nM; EC50 [2]: 48.4 nM
5 | O=C1NCCCCNC(=O)C2(CC2)Nc2nc(nc(OCC(F)(F)F)n2)Nc2ccc1cc2 [Example 0006] | – | EC50 [1]: 1000 to 5000 nM
6 | O=C1NC2CNCC2C(=O)NCCCCCCOc2ccc(cc2)CNc2nc(nc(OCC(F)(F)F)n2)Nc2ccc1cc2 (stereo not drawn) [Example 0007] | – | EC50 [1]: 0.1 to 100 nM; EC50 [2]: 8.31 nM
7 | CCN(CC)CCN1CCNC(=O)c2ccc(cc2)Nc2nc(nc(OCC(F)(F)F)n2)Nc2ccc(cc2)C1=O [Example 0021] | 100 to 1000 nM | –
8 | CN1CCCNC(=O)c2ccc(cc2)Nc2nc(nc(OCC(F)(F)F)n2)Nc2ccc(cc2)C(=O)NCCC1 [Example 0022] | 100 to 1000 nM | –
9 | CN(C)CCCN1CCCNC(=O)c2ccc(cc2)Nc2nc(nc(OCC(F)(F)F)n2)Nc2ccc(cc2)C1=O [Example 0023] | 100 to 1000 nM | –
10 | CN1CCCN(C)CCCN(C)C(=O)c2ccc(cc2)Nc2nc(nc(OCC(F)(F)F)n2)Nc2ccc(cc2)C(=O)N(C)CCC1 [Example 0024] | 1000 to 5000 nM | EC50 [4]: 16300 nM
11 | O=C1NCCCCCCNC(=O)c2ccc(cc2)Nc2nc(nc(OCC(F)(F)F)n2)NCc2ccc1cc2 [Example 0032] | 100 to 1000 nM | –
12 | O=C1NCCCCNC(=O)c2ccc(cc2)Nc2nc(nc(OCC(F)(F)F)n2)NCc2ccc1cc2 [Example 0033] | 100 to 1000 nM | –
13 | CCN(CC)CCN1CCNC(=O)c2ccc(cc2)CNc2nc(nc(OCC(F)(F)F)n2)Nc2ccc(cc2)C1=O [Example 0035] | 1000 to 5000 nM | –
14 | O=C1NCCCN2CCN(CCCNC(=O)c3ccc(cc3)Nc3nc(nc(OCC(F)(F)F)n3)NCc3ccc1cc3)CC2 [Example 0039] | 100 to 1000 nM | –
15 | CN1CCCN(C)CCCN(C)C(=O)c2ccc(cc2)Nc2nc(nc(OCC(F)(F)F)n2)NCc2ccc(cc2)C(=O)N(C)CCC1 [Example 0041] | 1000 to 5000 nM | EC50 [4]: 21600 nM
16 | CN1CCNC(=O)c2ccc(cc2)CNc2nc(nc(OCC(F)(F)F)n2)Nc2ccc(cc2)C(=O)NCC1 [Example 0042] | 100 to 1000 nM | –
17 | O=C1NCc2ccc(cc2)CNc2nc(nc(OCC(F)(F)F)n2)Nc2ccc(cc2)CNC(=O)Nc2cccc(c2)N1 [Example 0051] | 100 to 1000 nM | –
18 | O=C1NCc2ccc(cc2)Nc2nc(nc(OCC(F)(F)F)n2)NCc2cccc(c2)CNC(=O)Nc2cccc(c2)N1 [Example 0052] | 100 to 1000 nM | –
19 | O=C1NCCCCNC(=O)NCc2ccc(cc2)Nc2nc(nc(OCC(F)(F)F)n2)NCc2ccc(cc2)CN1 [Example 0053] | 100 to 1000 nM | –
20 | O=C1NCc2ccc(cc2)Nc2nc(nc(OCC(F)(F)F)n2)NCc2cccc(c2)CNC(=O)NC2CCC(CC2)CC2CCC(CC2)N1 [Example 0054] | 1000 to 5000 nM | EC50 [4]: 5210 nM
21 | O=C1NCCCCCCNC(=O)NCc2ccc(cc2)Nc2nc(nc(OCC(F)(F)F)n2)NCc2ccc(cc2)CN1 [Example 0055] | 100 to 1000 nM | –

Row | Compound | EC50 [3] | further results
22 | O=C1NCCCCCCNC(=O)NCc2cccc(c2)CNc2nc(nc(OCC(F)(F)F)n2)Nc2ccc(cc2)CN1 [Example 0056] | 100 to 1000 nM | –
23 | CC1(C)NC(=O)NCc2ccc(cc2)CNc2nc(nc(OCC(F)(F)F)n2)Nc2ccc(cc2)CNC(=O)NC(C)(C)c2cccc1c2 [Example 0057] | 100 to 1000 nM | –
24 | CC1(C)NC(=O)NCc2ccc(cc2)Nc2nc(nc(OCC(F)(F)F)n2)NCc2cccc(c2)CNC(=O)NC(C)(C)c2cccc1c2 [Example 0058] | 100 to 1000 nM | –
25 | O=C1NCc2ccc(cc2)Nc2nc(nc(OCC(F)(F)F)n2)NCc2cccc(c2)CNC(=O)c2ccccc21 [Example 0059] | 0.1 to 100 nM | –
26 | O=C1NCc2ccc(cc2)Nc2nc(nc(OCC(F)(F)F)n2)NCc2cccc(c2)CNC(=O)c2ccc1cc2 [Example 0060] | 100 to 1000 nM | –
27 | O=C1CCCC(=O)NCc2ccc(cc2)Nc2nc(nc(OCC(F)(F)F)n2)NCc2ccc(cc2)CN1 [Example 0061] | 100 to 1000 nM | –
28 | O=C1CCCC(=O)NCc2cccc(c2)CNc2nc(nc(OCC(F)(F)F)n2)Nc2ccc(cc2)CN1 [Example 0062] | 100 to 1000 nM | –
29 | O=C1CCCCCCC(=O)NCc2ccc(cc2)Nc2nc(nc(OCC(F)(F)F)n2)NCc2ccc(cc2)CN1 [Example 0063] | 100 to 1000 nM | –
30 | O=C1CCCCCCCCC(=O)NCc2cccc(c2)CNc2nc(nc(OCC(F)(F)F)n2)Nc2ccc(cc2)CN1 [Example 0065] | 100 to 1000 nM | –
31 | O=C1NCc2ccc(cc2)CNc2nc(nc(OCC(F)(F)F)n2)Nc2ccc(cc2)CNC(=O)OCCOCCOCCO1 [Example 0067] | 100 to 1000 nM | –
32 | O=C1NCc2ccc(cc2)Nc2nc(nc(OCC(F)(F)F)n2)NCc2cccc(c2)CNC(=O)OCCOCCOCCO1 [Example 0068] | 100 to 1000 nM | –
33 | O=C1COCC(=O)NCc2ccc(cc2)Nc2nc(nc(OCC(F)(F)F)n2)NCc2ccc(cc2)CN1 [Example 0069] | 0.1 to 100 nM | EC50 [4]: 78.8 nM
34 | O=C1COCC(=O)NCc2cccc(c2)CNc2nc(nc(OCC(F)(F)F)n2)Nc2ccc(cc2)CN1 [Example 0070] | 0.1 to 100 nM | –
35 | CC1(C)C(=O)NCc2ccc(cc2)CNc2nc(nc(OCC(F)(F)F)n2)Nc2ccc(cc2)CNC1=O [Example 0071] | 100 to 1000 nM | –
36 | CC1(C)C(=O)NCc2ccc(cc2)Nc2nc(nc(OCC(F)(F)F)n2)NCc2cccc(c2)CNC1=O [Example 0072] | 0.1 to 100 nM | –
37 | O=C1NCCCCCNc2cccc(c2)C2(CC2)Nc2nc(nc(OCC(F)(F)F)n2)Nc2ccc1cc2 [Example 3001] | 0.1 to 100 nM | –
38 | O=C1CNC(=O)c2ccc(cc2)Nc2nc(nc(OCC(F)(F)F)n2)NCc2ccc(cc2)NC(=O)CN1 [Example 3002] | 100 to 1000 nM | –
39 | O=C1CNC(=O)CNC(=O)c2ccc(cc2)Nc2nc(nc(OCC(F)(F)F)n2)NCc2ccc(cc2)NC(=O)CN1 [Example 3003] | 100 to 1000 nM | –
40 | O=C1NS(=O)(=O)C/C=C/CCCOc2ccc(cc2)CNc2nc(nc(OCC(F)(F)F)n2)Nc2ccc1cc2 [Example 3005] | 1000 to 5000 nM | –
41 | O=C1CNC(=O)c2ccc(cc2)Nc2nc(nc(OCC(F)(F)F)n2)NCc2ccc(cc2)OCC=CCS(=O)(=O)N1 [Example 3007] | 100 to 1000 nM | EC50 [4]: 557 nM
42 | O=C1CCCNC(=O)c2ccc(cc2)Nc2nc(nc(OCC(F)(F)F)n2)NCc2ccc(cc2)OCC=CCS(=O)(=O)N1 [Example 3010] | 0.1 to 100 nM | EC50 [4]: 20.3 nM

Row | Compound | EC50 [3] | further results
43 | O=C1CCCCNC(=O)c2ccc(cc2)Nc2nc(nc(OCC(F)(F)F)n2)NCc2ccc(cc2)OC/C=C/S(=O)(=O)N1 [Example 3012] | 100 to 1000 nM | EC50 [4]: 275 nM
44 | O=C1NCCCCNCCOc2ccc(cc2)CNC2=N/C(=N\c3ccc1cc3)N=C(OCC(F)(F)F)N2 [Example 4001, (2E)-5-(2,2,2-trifluoroethoxy)-14-oxa-2,4,6,8,17,22,31-heptaazatetracyclo[22.2.2.2∼10,13∼.1∼3,7∼]hentriaconta-1(26),2,4,7(31),10,12,24,27,29-nonaen-23-one] | 0.1 to 100 nM | –
45 | CC(=O)N1CCCCNC(=O)c2ccc(cc2)Nc2nc(nc(OCC(F)(F)F)n2)NCc2ccc(cc2)OCC1 [Example 4002] | 100 to 1000 nM | EC50 [4]: 105 nM
46 | CCC(=O)N1CCCCNC(=O)c2ccc(cc2)Nc2nc(nc(OCC(F)(F)F)n2)NCc2ccc(cc2)OCC1 [Example 4003] | 0.1 to 100 nM | –
47 | CC(C)C(=O)N1CCCCNC(=O)c2ccc(cc2)Nc2nc(nc(OCC(F)(F)F)n2)NCc2ccc(cc2)OCC1 [Example 4004] | 0.1 to 100 nM | –
48 | CC(C)(C)C(=O)N1CCCCNC(=O)c2ccc(cc2)Nc2nc(nc(OCC(F)(F)F)n2)NCc2ccc(cc2)OCC1 [Example 4005] | 0.1 to 100 nM | –
49 | CNC(=O)N1CCCCNC(=O)c2ccc(cc2)Nc2nc(nc(OCC(F)(F)F)n2)NCc2ccc(cc2)OCC1 [Example 4006] | 0.1 to 100 nM | –
50 | CCNC(=O)N1CCCCNC(=O)c2ccc(cc2)Nc2nc(nc(OCC(F)(F)F)n2)NCc2ccc(cc2)OCC1 [Example 4007] | 0.1 to 100 nM | –
51 | CC(C)NC(=O)N1CCCCNC(=O)c2ccc(cc2)Nc2nc(nc(OCC(F)(F)F)n2)NCc2ccc(cc2)OCC1 [Example 4008] | 0.1 to 100 nM | –
52 | CC(C)(C)NC(=O)N1CCCCNC(=O)c2ccc(cc2)Nc2nc(nc(OCC(F)(F)F)n2)NCc2ccc(cc2)OCC1 [Example 4009] | 0.1 to 100 nM | EC50 [4]: 8.47 nM
53 | COC(=O)N1CCCCNC(=O)c2ccc(cc2)Nc2nc(nc(OCC(F)(F)F)n2)NCc2ccc(cc2)OCC1 [Example 4013] | 0.1 to 100 nM | –
54 | CCOC(=O)N1CCCCNC(=O)c2ccc(cc2)Nc2nc(nc(OCC(F)(F)F)n2)NCc2ccc(cc2)OCC1 [Example 4014] | 0.1 to 100 nM | –
55 | CC(C)OC(=O)N1CCCCNC(=O)c2ccc(cc2)Nc2nc(nc(OCC(F)(F)F)n2)NCc2ccc(cc2)OCC1 [Example 4015] | 0.1 to 100 nM | –
56 | CC(C)(C)OC(=O)N1CCCCNC(=O)c2ccc(cc2)Nc2nc(nc(OCC(F)(F)F)n2)NCc2ccc(cc2)OCC1 [Example 4016] | 0.1 to 100 nM | –
57 | O=C1NCCCNCCCCOc2ccc(cc2)CNc2nc(nc(OCC(F)(F)F)n2)Nc2ccc1cc2 [Example 4017] | 0.1 to 100 nM | –
58 | CC(=O)N1CCCCOc2ccc(cc2)CNc2nc(nc(OCC(F)(F)F)n2)Nc2ccc(cc2)C(=O)NCCC1 [Example 4018] | 0.1 to 100 nM | –
59 | CCC(=O)N1CCCCOc2ccc(cc2)CNc2nc(nc(OCC(F)(F)F)n2)Nc2ccc(cc2)C(=O)NCCC1 [Example 4019] | 0.1 to 100 nM | –
60 | CC(C)C(=O)N1CCCCOc2ccc(cc2)CNc2nc(nc(OCC(F)(F)F)n2)Nc2ccc(cc2)C(=O)NCCC1 [Example 4020] | 0.1 to 100 nM | –
61 | COC(=O)N1CCCCOc2ccc(cc2)CNc2nc(nc(OCC(F)(F)F)n2)Nc2ccc(cc2)C(=O)NCCC1 [Example 4023] | 0.1 to 100 nM | –
62 | CCOC(=O)N1CCCCOc2ccc(cc2)CNc2nc(nc(OCC(F)(F)F)n2)Nc2ccc(cc2)C(=O)NCCC1 [Example 4024] | 0.1 to 100 nM | –
